Assay results reported in patent US8426649B2, “Cyclopropenones and the photochemical generation of cyclic alkynes therefrom” (University of Georgia Research Foundation, Inc., priority 2009, dated 2013).
Like-named read-outs stand apart in the source and are kept apart here.

How the values were obtained:
[1] = literature values (Baskin 2007; Ning/Boons 2008), cited from earlier work
Jurkat cells [2] = experiment: Cell surface labeling detected by fluorescence intensity of cell lysates (avidin-FITC); assay type: cell-based, Human; conditions: for Incubation time at which labeling was reaching completion: time course
Experimental: Having established that light activation of cyclopropenones results in the clean formation of the corresponding dibenzocyclooctynes, which can undergo cycloadditions with azides (e.g., metal-free cycloadditions in preferred embodiments) to give corresponding triazoles, attention was focused on labeling living cell modified with azido groups. Thus, Jurkat cells were cultured in the presence of […] of peracetylated N-azidoacetylmannosamine (Ac4ManNAz) for 3 days to metabolically introduce N-azidoacetyl-sialic acid (SiaNAz) groups into glycoproteins and glycolipids. As a negative control, Jurkat cells were employed that were grown in the presence of peracetylated N-acetylmannosamine (Ac4ManNAc). The cells were exposed to 30 micromolar of compound 4b, 5b, and 6b for 1 hour at room temperature. In addition, cells and cyclopropenone 5b were exposed to light (350 nm) for 1 minute to form in-situ cyclooctyne 6b and then incubated for 1 hour at room temperature. Next, the cells were washed and stained with avidin-fluorescein isothiocyanate (FITC) for 15 minutes at 4° C. The efficiency of the two-step cell surface labeling was determined by measuring the fluorescence intensity of the cell lysates.
Jurkat cells were cultured in the presence of […] of peracetylated N-azidoacetylmannosamine (Ac4ManNAz) for 3 days to metabolically introduce N-azidoacetyl-sialic acid (SiaNAz) groups into glycoproteins. As a negative control, Jurkat cells were employed that were grown in the presence of peracetylated N-acetylmannosamine (Ac4ManNAc). The cells were exposed to 30 micromoles of compound 4b, 5b, and 6b for 1 hour at 37° C. In addition, cells and cyclopropenone 5b were exposed to light (350 nm) for 1 minute to form in-situ cyclooctyne 6b and then incubated for 1 hour at 37° C. Next, the cells were washed and stained with avidin-fluorescein isothiocyanate (FITC) for 15 minutes at 4° C. and the efficiency of the two-step cell surface labeling was determined by measuring the fluorescence intensity of the cell lysates.
Jurkat cells were seeded at a density of 75,000 cells mL^−1 in a total volume of 40 mL culture medium in the presence of peracetylated N-azidoacetylmannosamine (Ac4ManNaz; 25 micromolar final concentration) and grown for 3 days, leading to the metabolic incorporation of the corresponding N-azidoacetyl sialic acid (SiaNAz) into their cell surface glycoproteins. Control cells were grown in the presence of peracetylated N-acetylmannosamine (Ac4ManNac; 25 micromolar final concentration) for 3 days. Similarly, CHO cells were grown for 3 days in the presence of Ac4ManNaz (100 micromolar final concentration) or Ac4ManNac (100 micromolar final concentration).
Jurkat cells bearing azides and control cells were washed with labeling buffer (DPBS, pH 7.4 containing 1% FBS and 1% BSA), transferred to round bottom tubes (1×10^6 cells/sample) and incubated with the biotinylated compounds 4b, 5b, or 6b (0-100 micromolar) in labeling buffer for 0-90 minutes at room temperature. To activate 5b in situ, immediately after adding the compound to the cells, the cell suspension was subjected to UV light (350 nm) for 1 minute. The cells were washed three times with cold labeling buffer and then incubated with avidin conjugated with fluorescein (0.5 microgram/ml; Molecular Probes) for 15 minutes at 4° C. Following three washes and cell lysis in passive lysis buffer (Promega), cell lysates were analysed for fluorescence intensity (485 ex/520 em) using a microplate reader (BMG Labtech). Data points were collected in triplicate and are representative of three separate experiments. Fluorescence of Jurkat cell lysates was expressed as fluorescence (arbitrary units; AU) per 800,000 cells.

CHO cells = experiment: Detection of cell labeling by fluorescence microscopy; assay type: cell-based, Chinese hamster
Experimental: Next, attention was focused on visualizing azido-containing glycoconjugates of living cells by confocal microscopy. Thus, adherent Chinese hamster ovary (CHO) cells were cultured in the presence of Ac4ManNAz (100 μM) for three days. The resulting cell surface azido groups were reacted with in situ generated 6b (30 μM) and then visualized with avidin-Alexa fluor 488.
CHO cells bearing azides and untreated control cells were transferred to glass coverslips and cultured for 36 hours in their original medium. Live CHO cells were treated with the biotinylated compound 5b (30 micromolar) in labeling buffer (DPBS, supplemented with FBS (1%)) for 1 hour at room temperature. To activate 5b in situ, immediately after adding the compound to the cells, the cells were subjected to UV light (350 nm) for 1 minute. Next, the cells were incubated with avidin conjugated with Alexa Fluor 488 (Molecular Probes) for 15 minutes at 4° C. Cells were washed 3 times with labeling buffer and fixed with formaldehyde (3.7% in PBS). The nucleus was labeled with the far red-fluorescent TO-PRO-3 dye (Molecular Probes). The cells were mounted with PermaFluor (Thermo Electron Corporation) before imaging. Initial analysis was performed on a Zeiss Axioplan2 fluorescent microscope. […] The step size, based on the calculated optimum for each objective, was between 0.25 and 0.5 micrometers. […]

Jurkat cells [3] = experiment: Western blot analysis of cell surface labeling; assay type: cell-based, Human; conditions: 30 micromolar, 1 hour; 5b in-situ activated
Experimental: To identify the nature of the azide-labeled Jurkat glycoconjugates, cell lysates were analyzed by Western blot analysis (FIG. 8). Jurkat cells grown for 3 days in the presence of Ac4ManNAc or Ac4ManNAz were incubated with compounds in-situ activated 5b or 6b (30 micromolar) and then lysed. The Western blot was probed with an anti-biotin antibody conjugated to horseradish peroxidase (HRP). […] Furthermore, similar patterns of labeling were apparent after incubation with in-situ activated 5b and 6b.
Jurkat cells were harvested by centrifugation (5 minutes at 1,400 rpm) and resuspended as 5×10^6 cells/mL. The cell suspensions (250 microliters per sample) were incubated with biotin-conjugated alkynes 4b, 5b, and 6b (30 micromolar) or without compound as control for 1 hour. To activate 5b in situ, immediately after adding the compound to the cells, the cell suspension was subjected to UV light (350 nm) for 1 minute. The cells were washed (4×10 minutes) with cold DPBS, pH 7.4 containing FBS (1%) and lysed in passive lysis buffer. The cell lysates were clarified by centrifugation at 15,000 rpm for 15 minutes and the total protein content of the clear supernatants was assessed using the bicinchonic acid assay (BCA; Pierce Biotechnology). […]

Jurkat cells [4] = experiment: Measurement of cytotoxicity (trypan blue exclusion, MTT); assay type: cell-based, Human
Experimental: Cell viability was also examined after incubation with 5b with and without light activation followed by reincubation for 5 hours (see Examples). In both cases, the ability of the cells to reduce MTT to its insoluble formazan salt was […].
Cell viability and cell morphology were assessed by exclusion of trypan blue followed microscopic evaluation immediately after photoactivation or after reincubation of the labeled cells in cell culture medium for 5 hours or overnight. Viability was measured by quantifying the cellular ability to reduce the water-soluble tetrazolium dye 3-4,5-dimethylthiazole-2,5-diphenyl tetrazolium bromide (MTT) to its insoluble formazan salt (e.g., Sgouras et al., J. Mater. Sci.: Materials in Medicine 1990, 1:61-68). Data points were collected in triplicate and expressed as normalized values for control cells (100%).

[5] = 30 micromolar, 1 hour, room temperature, cells grown with Ac4ManNAz
[6] = 30 micromoles, 1 hour at 37° C., cells grown with Ac4ManNAz

SMILES	Reported rate of the reaction of cyclooctynes with benzyl azide [1] [M⁻¹ s⁻¹]	Cell surface labeling (fluorescence intensity of cell lysates) (Jurkat cells [2]; [5])	Cell surface labeling (fluorescence intensity of cell lysates) (Jurkat cells [2]; [6])	Incubation time at which labeling was reaching completion (Jurkat cells [2]; 30 micromolar) [min]	Glycoprotein labeling on Western blot (anti-biotin-HRP) (Jurkat cells [3])	further results
O=C(O)COC1CCC#CC(F)(F)CC1 (centres unmarked) [2-[(6,6-difluoro-4-cyclooctyn-1-yl)oxy]-acetic acid]	0.076					
OC1Cc2ccccc2C#Cc2ccccc21 (centres unmarked) [4a, 11,12-didehydro-5,6-dihydro-dibenzo[a,e]cycloocten-5-ol]	0.17					Reported rate of the reaction of cyclooctynes with benzyl azide ([1]; listed as 11,12-didehydro-5,6-dihydro-dibenzo[a,e]cycloocten-5-ol): 0.0568 M⁻¹ s⁻¹
O=C(CCCC[C@@H]1SC[C@@H]2NC(=O)N[C@@H]21)NCCOCCOCCOCCNC(=O)OC1Cc2ccccc2C#Cc2ccccc21 (stereo partly drawn) [4b, 11,12-didehydro-5,6-dihydrodibenzo[a,e]cycloocten-5-yl ester of 19-[(3aS,4S,6aR)-hexahydro-2-oxo-1H-thieno[3,4-d]imidazol-4-yl]-15-oxo-5,8,11-trioxa-2,14-diazanonadecanoic acid, reference compound]		strong labeling	strong labeling	60		
CCCCOc1ccc2c(c1)CCc1cc(OCCOCCOC(=O)NCCOCCOCCNC(=O)CCCCC3SCC4NC(=O)NC43)ccc1-c1c-2c1=O (centres unmarked) [5b, 2-{2-[(9-Butoxy-1-oxo-6,7-dihydro-1H-dibenzo[a,e]cyclopropa-[c][8]annulen-4-yl)oxy]ethoxy}ethyl {2-[2-(2-{[5-(2-oxohexahydro-1H-thieno[3,4-d]imidazol-4-yl)pentanoyl]amino}ethoxy)ethoxy]ethyl}carbamate]			strong labeling		Significant glycoprotein labeling was only observed in lysates from cells grown in the presence of Ac4ManNAz	Staining (confocal microscopy, avidin-Alexa fluor 488) (CHO cells; in the dark, cells metabolically labeled with ManNAz): negligible staining; Cell surface labeling (fluorescence intensity of cell lysates) (Jurkat cells [2]; in the dark (no activation), 30 micromolar, 1 hour, room temperature): low fluorescence intensities; Cell surface labeling (fluorescence intensity of cell lysates) (Jurkat cells [2]; in the dark (no activation), 1 hour at 37° C.): low fluorescence intensities; Cell surface labeling (fluorescence intensity of cell lysates) (Jurkat cells [2]; in-situ activation, 350 nm 1 minute, then 1 hour at 37° C.): equally efficient cell labeling; Cell surface labeling (fluorescence intensity of cell lysates) (Jurkat cells [2]; in-situ activation, 350 nm 1 minute, then 1 hour at room temperature, 30 micromolar): equally efficient cell labeling; Cell viability and morphology (trypan blue exclusion) (Jurkat cells [4]; 30 micromolar 5b with and without UV light activation (1 minute at 350 nm)): no changes were observed; Ability of the cells to reduce MTT to formazan (Jurkat cells [4]; with and without light activation, reincubation for 5 hours): negligible
CCCCOc1ccc2c(c1)CCc1cc(OCCOCCOC(=O)NCCOCCOCCNC(=O)CCCCC3SCC4NC(=O)NC43)ccc1C#C2 (centres unmarked) [6b, 2-{2-[(9-Butoxy-5,6-didehydro-11,12-dihydrodibenzo[a,e][8]annulen-2-yl)oxy]ethoxy}ethyl {2-[2-(2-{[5-(2-oxohexahydro-1H-thieno[3,4-d]imidazol-4-yl)pentanoyl]amino}ethoxy)ethoxy]ethyl}carbamate]		strong labeling		60	Significant glycoprotein labeling was only observed in lysates from cells grown in the presence of Ac4ManNAz	Staining of azido-containing glycoconjugates (confocal microscopy, avidin-Alexa fluor 488) (CHO cells; in situ generated, 30 μM, cells grown with Ac4ManNAz 100 μM): staining was only observed at the cell surface; Fluorescent reading compared with 4b (Jurkat cells [2]; at low concentration): somewhat higher fluorescent reading than 4b
